This passage reports ED50, MIC and CC50 results from ChEMBL document CHEMBL1130900, “Synthesis and structure-activity relationships of 2-pyridones: II. 8-(Fluoro-substituted pyrrolidinyl)-2-pyridones as antibacterial agents” (Bioorg Med Chem Lett, 1998).

In brackets after ≈: the same amount, converted by molar mass.

Assay [1] has as its system Staphylococcus aureus. Nature of the assay: Effective dose against Staphylococcus aureus NCTC-10649M in mice upon subcutaneous administration. The class given is functional. To be noted: sc.
In assay [2] the test system is Escherichia coli. The experiment in a line: Antibacterial activity against Escherichia coli JUHL was determined. The class given is functional. The settings on record: Escherichia coli; read-out: MIC.
The next assay concerns Providencia stuartii. Nature of the assay: Antibacterial activity against Gram-negative Providencia Stuartii CMX640 was determined. The class given is functional.
The next assay has as its system Streptococcus pyogenes. The experiment in a line: Antibacterial activity against Streptococcus pyogenes EES61 was determined. Type of assay: functional.
In a further assay the test system is Enterococcus faecium. The experiment in a line: Antibacterial activity against Enterococcus faecium ATCC 8043 was determined. Type of assay: functional.
Another assay relates to Klebsiella pneumoniae. Nature of the assay: Antibacterial activity against Klebsiella pneumoniae ATCC 8045 was determined. Type of assay: functional.
A further assay relates to Klebsiella aerogenes. Nature of the assay: Antibacterial activity against Enterobacter aerogenes ATCC 13048 was determined. Type of assay: functional.
The test system of assay [3] is Staphylococcus aureus. Nature of the assay: Antibacterial activity against Staphylococcus aureus A1775 was determined. The class given is functional.
The subject of a further assay is Pseudomonas aeruginosa. The experiment in a line: Antibacterial activity against Pseudomonas aeruginosa A-5007 was determined. Type of assay: functional.
The subject of assay [4] is Staphylococcus aureus. Nature of the assay: Effective dose against Staphylococcus aureus NCTC-10649M in mice upon peroral administration. To be noted: po. Type of assay: functional.
In the next assay the test system is Streptococcus equinus. The experiment in a line: Antibacterial activity against Gram-positive Streptococcus bovis A5169 was determined. Type of assay: functional.
The next assay relates to DNA gyrase (bacterial). The experiment in a line: Compound was tested for bacterial DNA gyrase activity. To be noted: Bacteria.
The test system of assay [5] is Staphylococcus aureus. The experiment in a line: Antibacterial activity against Staphylococcus aureus NCTC-10649M was determined. The class given is functional.
Assay [6] in a line: Compound was tested for its effective dose against Escherichia coli JUHL in mice upon peroral administration. To be noted: Mus musculus, po. The class given is functional.
Assay [7] concerns Escherichia coli. Nature of the assay: Effective dose against Escherichia coli JUHL in mice upon subcutaneous administration. The class given is functional. To be noted: sc.
The mark [8] stands for this setting: Providencia stuartii, read-out: MIC.
Where [9] appears, read: Streptococcus pyogenes, read-out: MIC.
The mark [10] stands for this setting: Enterococcus faecium, ATCC 8043, read-out: MIC.
[11] abbreviates: Klebsiella pneumoniae, ATCC 8045, read-out: MIC.
Setting [12] is: Klebsiella aerogenes, ATCC 13048, read-out: MIC.
Setting [13] is: Staphylococcus aureus, read-out: MIC.
Where [14] appears, read: Pseudomonas aeruginosa, read-out: MIC.
[15] abbreviates: Streptococcus equinus, read-out: MIC.

With `Cc1c(N2C[C@@H](CN)[C@H](C(F)(F)F)C2)c(F)cn2c(=O)c(C(=O)O)cc(C3CC3)c12`, the ED50 in the assay with Staphylococcus aureus [1] is 0.7 mg/kg/day; in the assay on Staphylococcus aureus [4] it was 2.6 mg/kg/day. Also, the MIC stood at 0.02 µg/mL (≈ 0.0468 µM) in the assay on Escherichia coli [2]; 1.56 µg/mL (≈ 3.65 µM) in the assay on Providencia stuartii (setting [8]); 0.02 µg/mL (≈ 0.0468 µM) in the assay with Streptococcus pyogenes (setting [9]); 0.02 µg/mL (≈ 0.0468 µM) in the assay with Enterococcus faecium (setting [10]); 0.01 µg/mL (≈ 0.0234 µM) with Klebsiella pneumoniae (setting [11]); 0.05 µg/mL (≈ 0.117 µM) in the assay on Klebsiella aerogenes (setting [12]). Moreover, the MIC in the assay with Staphylococcus aureus [3] (setting [13]) was 0.78 µg/mL (≈ 1.82 µM); with Pseudomonas aeruginosa (setting [14]), 0.39 µg/mL (≈ 0.912 µM); in the assay on Streptococcus equinus (setting [15]) it was 0.02 µg/mL (≈ 0.0468 µM); in the assay with Staphylococcus aureus [5] (setting [13]) it was 0.01 µg/mL (≈ 0.0234 µM). The compound also returned a CC50 with DNA gyrase (bacterial) of 6.5 µg/mL (≈ 15.2 µM).

Take `Cc1c(N2C[C@@H](N)[C@H](C(F)(F)F)C2)c(F)cn2c(=O)c(C(=O)O)cc(C3CC3)c12`: the ED50 came to 4.8 mg/kg/day with Staphylococcus aureus [1] and 25.4 mg/kg/day in the assay with Staphylococcus aureus [4]. Moreover, the MIC in the assay with Escherichia coli [2] stood at 0.05 µg/mL (≈ 0.121 µM); with Providencia stuartii (setting [8]), 3.1 µg/mL (≈ 7.5 µM); in the assay on Streptococcus pyogenes (setting [9]), 0.2 µg/mL (≈ 0.484 µM); in the assay with Enterococcus faecium (setting [10]), 0.2 µg/mL (≈ 0.484 µM); in the assay on Klebsiella pneumoniae (setting [11]) it was 0.05 µg/mL (≈ 0.121 µM); in the assay on Klebsiella aerogenes (setting [12]), 0.2 µg/mL (≈ 0.484 µM). Further, the MIC with Staphylococcus aureus [3] (setting [13]) came to 1.56 µg/mL (≈ 3.77 µM); in the assay on Pseudomonas aeruginosa (setting [14]), 0.78 µg/mL (≈ 1.89 µM); in the assay on Streptococcus equinus (setting [15]), 0.39 µg/mL (≈ 0.943 µM); in the assay with Staphylococcus aureus [5] (setting [13]), 0.02 µg/mL (≈ 0.0484 µM). In addition, the CC50 in the assay on DNA gyrase (bacterial) turned out to be 3.8 µg/mL (≈ 9.19 µM).

As for `Cc1c(N2C[C@H](N)[C@@H](F)C2)c(F)cn2c(=O)c(C(=O)O)cc(C3CC3)c12`, the ED50 is 4.8 mg/kg/day in the assay on Staphylococcus aureus [1], greater than 10 mg/kg/day in assay [6], greater than 5 mg/kg/day with Escherichia coli [7] and 25 mg/kg/day in the assay on Staphylococcus aureus [4]. Further, the MIC with Providencia stuartii (setting [8]) was 0.78 µg/mL (≈ 2.15 µM); with Streptococcus pyogenes (setting [9]) it was 0.39 µg/mL (≈ 1.07 µM); in the assay with Enterococcus faecium (setting [10]), 0.39 µg/mL (≈ 1.07 µM); with Klebsiella pneumoniae (setting [11]), 0.02 µg/mL (≈ 0.055 µM); in the assay on Klebsiella aerogenes (setting [12]), 0.2 µg/mL (≈ 0.55 µM); in the assay on Staphylococcus aureus [3] (setting [13]) it was 1.56 µg/mL (≈ 4.29 µM). In addition, the MIC with Pseudomonas aeruginosa (setting [14]) is 0.78 µg/mL (≈ 2.15 µM); in the assay with Streptococcus equinus (setting [15]) it was 0.39 µg/mL (≈ 1.07 µM); in the assay on Staphylococcus aureus [5] (setting [13]), 0.05 µg/mL (≈ 0.138 µM).

Consider `Cc1c(N2CCC(F)(CN)C2)c(F)cn2c(=O)c(C(=O)O)cc(C3CC3)c12` (stereo not given), for which the MIC was 0.02 µg/mL (≈ 0.053 µM) in the assay with Escherichia coli [2]; 0.78 µg/mL (≈ 2.07 µM) in the assay on Providencia stuartii (setting [8]); 0.02 µg/mL (≈ 0.053 µM) in the assay on Streptococcus pyogenes (setting [9]); 0.02 µg/mL (≈ 0.053 µM) in the assay with Enterococcus faecium (setting [10]); 0.005 µg/mL (≈ 0.0132 µM) in the assay with Klebsiella pneumoniae (setting [11]); 0.05 µg/mL (≈ 0.132 µM) in the assay with Klebsiella aerogenes (setting [12]). For the same compound, the MIC in the assay on Staphylococcus aureus [3] (setting [13]) stood at 0.39 µg/mL (≈ 1.03 µM); with Pseudomonas aeruginosa (setting [14]), 0.39 µg/mL (≈ 1.03 µM); with Streptococcus equinus (setting [15]) it was 0.02 µg/mL (≈ 0.053 µM); with Staphylococcus aureus [5] (setting [13]), 0.01 µg/mL (≈ 0.0265 µM).

`Cc1c(N2C[C@@H](N)[C@H](F)C2)c(F)cn2c(=O)c(C(=O)O)cc(C3CC3)c12` (stereo in doubt; 3a-R,R7): the ED50 with Staphylococcus aureus [1] is 4.8 mg/kg/day; in assay [6], greater than 10 mg/kg/day; in the assay with Escherichia coli [7] it was greater than 5 mg/kg/day; in the assay on Staphylococcus aureus [4], 7.3 mg/kg/day. Further, the MIC amounted to 1.56 µg/mL (≈ 4.29 µM) in the assay with Providencia stuartii (setting [8]); 0.2 µg/mL (≈ 0.55 µM) in the assay with Streptococcus pyogenes (setting [9]); 0.2 µg/mL (≈ 0.55 µM) in the assay with Enterococcus faecium (setting [10]); 0.02 µg/mL (≈ 0.055 µM) in the assay with Klebsiella pneumoniae (setting [11]); 0.2 µg/mL (≈ 0.55 µM) against Klebsiella aerogenes; 1.56 µg/mL (≈ 4.29 µM) in the assay with Staphylococcus aureus [3] (setting [13]). Besides, the MIC came out at 1.56 µg/mL (≈ 4.29 µM) in the assay with Pseudomonas aeruginosa (setting [14]), 0.39 µg/mL (≈ 1.07 µM) with Streptococcus equinus (setting [15]) and 0.05 µg/mL (≈ 0.138 µM) against Staphylococcus aureus [5].

`Cc1c(N2CC[C@@H]([C@@H](N)C(F)(F)F)C2)c(F)cn2c(=O)c(C(=O)O)cc(C3CC3)c12`: the MIC worked out at 0.78 µg/mL (≈ 1.82 µM) in the assay with Escherichia coli [2]; 6.2 µg/mL (≈ 14.5 µM) with Providencia stuartii (setting [8]); 0.2 µg/mL (≈ 0.468 µM) in the assay on Streptococcus pyogenes (setting [9]); 0.39 µg/mL (≈ 0.912 µM) in the assay on Enterococcus faecium (setting [10]); 0.39 µg/mL (≈ 0.912 µM) in the assay with Klebsiella pneumoniae (setting [11]); 1.56 µg/mL (≈ 3.65 µM) with Klebsiella aerogenes (setting [12]). Besides, the MIC in the assay with Staphylococcus aureus [3] (setting [13]) worked out at 0.78 µg/mL (≈ 1.82 µM); with Pseudomonas aeruginosa (setting [14]), 6.2 µg/mL (≈ 14.5 µM); in the assay on Streptococcus equinus (setting [15]) it was 0.39 µg/mL (≈ 0.912 µM); with Staphylococcus aureus [5] (setting [13]), 0.02 µg/mL (≈ 0.0468 µM).

As for `Cc1c(N2CCC(CN)(CF)C2)c(F)cn2c(=O)c(C(=O)O)cc(C3CC3)c12` (stereo not given), the ED50 is 1.5 mg/kg/day in the assay on Staphylococcus aureus [1], greater than 10 mg/kg/day in assay [6], 1.5 mg/kg/day with Escherichia coli [7] and 3.8 mg/kg/day in the assay on Staphylococcus aureus [4]. Also, the MIC with Escherichia coli [2] is 0.05 µg/mL (≈ 0.128 µM); in the assay on Providencia stuartii (setting [8]), 0.78 µg/mL (≈ 1.99 µM); in the assay on Streptococcus pyogenes (setting [9]), 0.05 µg/mL (≈ 0.128 µM); in the assay with Enterococcus faecium (setting [10]), 0.1 µg/mL (≈ 0.255 µM); with Klebsiella pneumoniae (setting [11]), 0.1 µg/mL (≈ 0.255 µM); in the assay on Staphylococcus aureus [3] (setting [13]) it was 1.56 µg/mL (≈ 3.99 µM). Besides, the MIC with Pseudomonas aeruginosa (setting [14]) is 0.78 µg/mL (≈ 1.99 µM); in the assay with Streptococcus equinus (setting [15]) it was 0.1 µg/mL (≈ 0.255 µM); in the assay on Staphylococcus aureus [5] (setting [13]) it was 0.02 µg/mL (≈ 0.0511 µM).

As for `Cc1c(N2C[C@@H](N)[C@H](F)C2)c(F)cn2c(=O)c(C(=O)O)cc(C3CC3)c12` (stereo in doubt; 3a), the MIC stood at 0.02 µg/mL (≈ 0.055 µM) in the assay on Escherichia coli [2]; 1.56 µg/mL (≈ 4.29 µM) against Providencia stuartii; 0.2 µg/mL (≈ 0.55 µM) in the assay with Streptococcus pyogenes; 0.1 µg/mL (≈ 0.275 µM) with Enterococcus faecium; 0.02 µg/mL (≈ 0.055 µM) against Klebsiella pneumoniae; 0.05 µg/mL (≈ 0.138 µM) against Klebsiella aerogenes. The MIC against Staphylococcus aureus [3] was 0.78 µg/mL (≈ 2.15 µM); with Pseudomonas aeruginosa, 0.78 µg/mL (≈ 2.15 µM); with Streptococcus equinus it was 0.2 µg/mL (≈ 0.55 µM); against Staphylococcus aureus [5] it was 0.02 µg/mL (≈ 0.055 µM).
